This note sets out measurements from patent US20250270159A1, “1-(CYCLOBUTANEMETHYLIDENE)-2, 4, 5-TRIMETHOXYBENZENE COMPOUND AND PREPARATION METHOD AND USE THEREOF” (CHENGDU XINRUI TAIKANG TECHNOLOGY CO., LTD., priority 2023, published 2025).

In one data set the test system is GLT-1. Kind of data set: GLT-1 content in brain of TBI rats. The data set is classed as in vivo, SD rats. The note with it: 30 mg/kg ip, 7 d continuous administration, FIG. 4. Here is the method:
The experimental grouping and drug administration plan were as follows. • Sham operation group (Group P): saline was given with the same volume as in the CTMB group; • Model group (T group): a blank emulsion was given with the same volume as in the CTMB group; • Medium dose group (Group M): a dose of 30 mg/kg of CTMB emulsion injection was given.
The experimental grouping and drug administration plan were the same as the test 3. After 7 d of continuous administration to each group, the rats were deeply anesthetized, the heads were severed and the brains were removed, about 60-120 mg of hemispheric cortex on the blood side was taken out, 10 times volume of ice-cold centrifugation buffer used for biochemical assay was added, homogenized for 10 min under an ice bath, and then centrifuged for 30 min at 4° C. and 14000 rpm/min. The supernatants were taken to test the GLT-1 and GABA content according to the instructions of GLT-1 and GABA content assay kit, respectively. Glutamate transporter 1 (GLT-1) is an important glutamate transporter in the brain that transports extracellular glutamate to the intracellular compartment. γ-aminobutyric acid (GABA) is an important inhibitory neurotransmitter, and a dramatic increase in the concentration of extracellular glutamate in pathological conditions leads to neuronal hyperexcitability toxicity.

The subject of data set [1] is hemorrhagic stroke induced by caudate nucleus collagenase VII injection in rats. Kind of data set: Acute phase of hemorrhagic stroke induced by caudate nucleus collagenase VII injection, short-term neurological deficit score. The data set is classed as in vivo. Conditions: for mNSS score / Garcia score: 24 h after hemorrhagic stroke modeling; for mNSS score: scale 0-18, higher worse; for Garcia score: scale 3-18, lower worse. The protocol:
after 2 h of hemorrhagic stroke, Zea Longa Score was used to determine whether the modeling was successful, and rats with successful modeling were taken and randomly grouped to be administered.
The rats were randomly divided into a sham operation group (Sham group, given a blank emulsion with a volume equal to that of the high-dose CTMB group), a model group (Vehicle group, given a blank emulsion with a volume equal to that of the high-dose CTMB group), a low-dose CTMB group (CTMB-L group, 10 mg/kg), a high-dose CTMB group (CTMB-H group, 20 mg/kg), and an edaravone dexborneol injection concentrated solution group (EDB group, commercially available, 3 mg/kg). Each group included 10-13 rats, which were administered by intraperitoneal injection. It should be noted that in the experiment, the mode of administration for rats was intraperitoneal injection, and a ratio of the effective dose of CTMB, the active ingredient in the emulsion injection, to the unit mass of the human body was within a range of 0.2 mg-4.0 mg/kg, which referred to the ratio of the effective dose of CTMB, the active ingredient in the emulsion injection, to the unit mass of the human body during intravenous infusion, which was extrapolated from effective dose of the rats. Considering the different bioavailability, peak concentration, and peak time of the drug due to different species and different modes of administration, the ration of the effective dose of the active ingredient CTMB in the emulsion injection to unit mass of human body was finally determined to be 0.2 mg-4.0 mg/kg through conversion.
The rats were fasted and dehydrated for 8 h before the procedure, and anesthesia was induced using 4% isoflurane, and 2% isoflurane was given to maintain anesthesia, and the rats were maintained at a temperature of about 37° C. The rats were fixed at the prone position on the stereotaxic apparatus, the head was prepared for skinning, and a longitudinal incision was made in the median sagittal shape of the head to incise the skin and subcutaneous tissues, exposing the anterior chimney and coronal suture. The stereotaxic apparatus was used to locate the right caudate nucleus of the rat with the fontanel as the origin and the right paracentral opening of the midline of 3.0 mm, marked and then holes were punched with the cranial bone drill, the dura was exposed, and the hemorrhage was stopped adequately. The micro-syringe was pre-mounted on the stereotaxic apparatus, and the needle was vertically injected 5.5 mm along the cranial borehole (i.e., the caudate nucleus site). Collagenase VII (1 μL) at a concentration of 0.5 U/μL was injected slowly and uniformly into the brain for 5 min, the needle was stopped for 8 min, and the syringe was slowly pushed out. The cranial defect was closed using sterile bone wax and the scalp incision was sutured. After disinfecting the treatment with iodophor, the rats were returned to the cage. The sham operation group (Sham group) remained unchanged except for the insertion of a needle for saline injection. After awaking from anesthesia, the rats were fed normally. […]
The neural function of the rats was comprehensively evaluated after 24 h of modeling using the modified mNSS score and Garcia score, and mNSS scoring criteria was shown in Table 3 and Garcia scoring criteria was shown in Table 4. […]

Data set [2] concerns rat model of lithium-pilocarpine-induced epilepsy. Kind of data set: Survival of SE model rats after drug intervention in the acute phase. Conditions: 50 mg/kg ip; Logrank test P<0.05 vs model; FIG. 1. The data set is classed as in vivo, Sprague Dawley (SD) rats. Here is the method:
Methylscopolamine bromide, lithium chloride, and pilocarpine were weighed, and experimental drugs were dissolved to working concentrations (100 mg/mL of lithium chloride solution, 1 mg/mLof methylscopolamine bromide solution, and 20 mg/mL of pilocarpine solution) with 0.9% saline. Rats were injected intraperitoneally with lithium chloride (a dose of 127 mg/kg), and 18-20 h later, scopolamine methylbromide (a dose of 1 mg/kg) was injected intraperitoneally. […] Thereafter, an additional dose of 10 mg/kg pilocarpine was injected intraperitoneally every 30 min until the onset of a grade IV or higher status epilepticus (SE)-like seizure without significant intermittent intervals, with a maximum dose of 60 mg/kg.
The rats with successful modeling were randomly divided into three groups, namely a model group, a CTMB group, and a sodium valproate (VPA) group. Administration was carried out after 1 h of SE onset, with a blank emulsion given by intraperitoneal injection in the model group, a CTMB emulsion injection at a dose of 50 mg/kg given by intraperitoneal injection in the CTMB group, and sodium valproate at a dose of 300 mg/kg given by oral gavage in the VPA group. […]
The differences between the survival curves of the rats in each group were analyzed by a Logrank test.

Turning to `COc1cc(OC)c(OC)cc1C=C1CCC1` [CTMB, 1-(cyclobutylidenemethyl)-2,4,5-trimethoxybenzene], in the data set on GLT-1, the “GLT-1 content in brain” value is on record as “reduces the GLT-1 content”; the “ratio of GLT-1 and GABA” value is “significantly reduces the ratio of GLT-1 and GABA”. Also, in data set [1] (10 and 20 mg/kg ip, hemorrhagic stroke rats), the “toxic side effects associated with administration” value is recorded as “No toxic side effects”. Also, in data set [1] (CTMB-H 20 mg/kg ip), the mNSS score is listed as 5.97 ± 1.68^####, * and the Garcia score is on record as 10.45 ± 2.49^####, *. Further, in data set [1] (CTMB-L 10 mg/kg ip), the mNSS score is reported as 4.54 ± 1.81^###, **** and the Garcia score is on record as 12.45 ± 1.89^####, ****. Further, in data set [2], the “survival rate of the SE model rats” value is “significantly increases the survival rate”.
